Results on two compounds are retold here after paper PMC8786778 (Pharmacological reports : PR, 2021).

Holding throughout (assay type): cell-based
The nature of data set [1]: Differential nuclear staining (DNS) cytotoxicity assay. The following applies: human, Hs27 cells (non-cancerous) versus CCRF-CEM cells (cancer); CC50 Hs27 / CC50 CCRF-CEM; read-out: SCI (Selective Cytotoxicity Index).
Source text: (§1) All cell lines were obtained commercially from ATCC (American Type Culture Collection). Several cancer and non-cancerous cell lines were used for this analysis. […] Solid tumor cancer cell lines included MDA-MB-231 (Adenocarcinoma; HTB-26) cultured in DMEM medium, HT-29 (Colorectal Adenocarcinoma; HTB-38) cultured in McCoy’s 5A medium, and COLO 205 (Colorectal Adenocarcinoma; CCL-222) cultured in RPMI-1640 medium. Non-cancerous cell lines included Hs27 (No disease, foreskin; CRL-1634) cultured in DMEM medium and MCF-10A (Fibrocystic Disease; CRL-10317) cultured in DMEM/F12 medium supplemented with 20 ng/ml epidermal growth factor, 0.5 μg/ml hydrocortisone, and 10 μg/ml insulin. Additionally, all media used for cell culture was supplemented with 10% heat-inactivated fetal bovine serum (FBS), and a mixture of 25 μg/ml amphotericin B, 1,000 U/ml penicillin, and 1,000 μg/ml streptomycin. […] All cell lines were grown in an incubator supplemented with 5% CO2 at 37 °C.
(§2) Cytotoxic activity was evaluated through the DNS assay [17, 18]. This assay involves labeling live and dead cells with two nucleic acid intercalators, Hoechst 33342 and propidium iodide (PI). Hoechst 33342 stains all cells (healthy and dead), but PI stains only dead or dying cells with a compromised cell membrane [17, 18]. For the experiment, each cell line was plated at a density of 10,000 cells per well (96-well plate) in 100 μl media and placed in the incubator overnight under cell culture conditions. Cells were then treated with varying concentrations of the compound of interest for 48 h. Two hours before incubation elapsed, 10 μl of a dye mixture consisting of phosphate-buffered saline (PBS), Hoechst 33342 (1 μg/ml final; Invitrogen, H1399), and PI (1 μg/ml final; Invitrogen, P1304MP) was added to each well. […] For quantitative analysis, images were segmented through the IN Cell Analyzer Workstation 3.2 software (GE Healthcare). […] Each compound concentration and each control were assessed in triplicate. […] SCI was calculated using the following equation: CC50 of the non-cancer cell line/CC50 of the cancer cell line [20].
The subject of data set [2] is CCRF-CEM. Described as above. The note with it: Homo sapiens, CCRF-CEM, 48 h.
Source text: as §1, §2
Assay in data set [3]: as above
The following applies: human, Hs27 cells (non-cancerous) versus COLO 205 cells (cancer); CC50 Hs27 / CC50 COLO 205; read-out: SCI (Selective Cytotoxicity Index).
Source text: as §1, §2

The test system of data set [4] is COLO 205. The description is as above. The following applies: Homo sapiens, COLO 205, 48 h.
Source text: as §1, §2
Assay in data set [5]: as above
The following applies: human, Hs27 cells (non-cancerous) versus HL-60 cells (cancer); CC50 Hs27 / CC50 HL-60; read-out: SCI (Selective Cytotoxicity Index).
Procedure: (§3) All cell lines were obtained commercially from ATCC (American Type Culture Collection). Several cancer and non-cancerous cell lines were used for this analysis. […] Non-cancerous cell lines included Hs27 (No disease, foreskin; CRL-1634) cultured in DMEM medium and MCF-10A (Fibrocystic Disease; CRL-10317) cultured in DMEM/F12 medium supplemented with 20 ng/ml epidermal growth factor, 0.5 μg/ml hydrocortisone, and 10 μg/ml insulin. Additionally, all media used for cell culture was supplemented with 10% heat-inactivated fetal bovine serum (FBS), and a mixture of 25 μg/ml amphotericin B, 1,000 U/ml penicillin, and 1,000 μg/ml streptomycin. The HL-60 cell line was supplemented with 20% FBS and the same antibiotic mixture described. All cell lines were grown in an incubator supplemented with 5% CO2 at 37 °C.
(§4) Cytotoxic activity was evaluated through the DNS assay [17, 18]. This assay involves labeling live and dead cells with two nucleic acid intercalators, Hoechst 33342 and propidium iodide (PI). Hoechst 33342 stains all cells (healthy and dead), but PI stains only dead or dying cells with a compromised cell membrane [17, 18]. For the experiment, each cell line was plated at a density of 10,000 cells per well (96-well plate) in 100 μl media and placed in the incubator overnight under cell culture conditions. Cells were then treated with varying concentrations of the compound of interest for 48 h. Two hours before incubation elapsed, 10 μl of a dye mixture consisting of phosphate-buffered saline (PBS), Hoechst 33342 (1 μg/ml final; Invitrogen, H1399), and PI (1 μg/ml final; Invitrogen, P1304MP) was added to each well. The IN Cell 2000 analyzer, a high-content analyzer (HCA), was used to image the plates (GE Healthcare). For quantitative analysis, images were segmented through the IN Cell Analyzer Workstation 3.2 software (GE Healthcare). […] Each compound concentration and each control were assessed in triplicate.
(§5) For the experiments conducted, the concentrations used correspond to either CC50 or CC50 × 2 in the specified cell line. […] Therefore, we used a CC10 and a CC30 concentration.

In data set [6] the test system is HL-60. The description is as above. The following applies: for CC50: Homo sapiens.
Procedure: as §3, §4, §5
Assay in data set [7]: as above
The following applies: human, Hs27 non-cancerous cells.
Source text: (§6) All cell lines were obtained commercially from ATCC (American Type Culture Collection). Several cancer and non-cancerous cell lines were used for this analysis. […] Solid tumor cancer cell lines included MDA-MB-231 (Adenocarcinoma; HTB-26) cultured in DMEM medium, HT-29 (Colorectal Adenocarcinoma; HTB-38) cultured in McCoy’s 5A medium, and COLO 205 (Colorectal Adenocarcinoma; CCL-222) cultured in RPMI-1640 medium. Non-cancerous cell lines included Hs27 (No disease, foreskin; CRL-1634) cultured in DMEM medium and MCF-10A (Fibrocystic Disease; CRL-10317) cultured in DMEM/F12 medium supplemented with 20 ng/ml epidermal growth factor, 0.5 μg/ml hydrocortisone, and 10 μg/ml insulin. Additionally, all media used for cell culture was supplemented with 10% heat-inactivated fetal bovine serum (FBS), and a mixture of 25 μg/ml amphotericin B, 1,000 U/ml penicillin, and 1,000 μg/ml streptomycin. The HL-60 cell line was supplemented with 20% FBS and the same antibiotic mixture described. […]
(§7) Cytotoxic activity was evaluated through the DNS assay [17, 18]. […] For quantitative analysis, images were segmented through the IN Cell Analyzer Workstation 3.2 software (GE Healthcare). […] Each compound concentration and each control were assessed in triplicate. […] SCI was calculated using the following equation: CC50 of the non-cancer cell line/CC50 of the cancer cell line [20].

Assay in data set [8]: as above
The following applies: human, Hs27 cells (non-cancerous) versus HT-29 cells (cancer); CC50 Hs27 / CC50 HT-29; read-out: SCI (Selective Cytotoxicity Index).
Source text: as §1, §2

Data set [9] relates to HT-29. Described as above. The following applies: Homo sapiens, HT-29, 48 h.
Source text: as §1, §2
Assay in data set [10]: as above
The following applies: human, Hs27 cells (non-cancerous) versus Jurkat cells (cancer); CC50 Hs27 / CC50 Jurkat; read-out: SCI (Selective Cytotoxicity Index).
Source text: (§8) All cell lines were obtained commercially from ATCC (American Type Culture Collection). Several cancer and non-cancerous cell lines were used for this analysis. […] Solid tumor cancer cell lines included MDA-MB-231 (Adenocarcinoma; HTB-26) cultured in DMEM medium, HT-29 (Colorectal Adenocarcinoma; HTB-38) cultured in McCoy’s 5A medium, and COLO 205 (Colorectal Adenocarcinoma; CCL-222) cultured in RPMI-1640 medium. Non-cancerous cell lines included Hs27 (No disease, foreskin; CRL-1634) cultured in DMEM medium and MCF-10A (Fibrocystic Disease; CRL-10317) cultured in DMEM/F12 medium supplemented with 20 ng/ml epidermal growth factor, 0.5 μg/ml hydrocortisone, and 10 μg/ml insulin. Additionally, all media used for cell culture was supplemented with 10% heat-inactivated fetal bovine serum (FBS), and a mixture of 25 μg/ml amphotericin B, 1,000 U/ml penicillin, and 1,000 μg/ml streptomycin. The HL-60 cell line was supplemented with 20% FBS and the same antibiotic mixture described. All cell lines were grown in an incubator supplemented with 5% CO2 at 37 °C.
(§9) Cytotoxic activity was evaluated through the DNS assay [17, 18]. This assay involves labeling live and dead cells with two nucleic acid intercalators, Hoechst 33342 and propidium iodide (PI). Hoechst 33342 stains all cells (healthy and dead), but PI stains only dead or dying cells with a compromised cell membrane [17, 18]. For the experiment, each cell line was plated at a density of 10,000 cells per well (96-well plate) in 100 μl media and placed in the incubator overnight under cell culture conditions. Cells were then treated with varying concentrations of the compound of interest for 48 h. […] For quantitative analysis, images were segmented through the IN Cell Analyzer Workstation 3.2 software (GE Healthcare). […] Each compound concentration and each control were assessed in triplicate. […] SCI was calculated using the following equation: CC50 of the non-cancer cell line/CC50 of the cancer cell line [20].

Data set [11] deals with Jurkat. Described as above. The note with it: Homo sapiens, Jurkat, 48 h.
Source text: as §8, §9
Assay in data set [12]: as above
The note with it: human, Hs27 cells (non-cancerous) versus K562 cells (cancer); CC50 Hs27 / CC50 K562; read-out: SCI (Selective Cytotoxicity Index).
Source text: as §8, §9

The test system of data set [13] is K562. The data set is described as above. The following applies: Homo sapiens, K562, 48 h.
Source text: as §8, §9
Assay in data set [14]: as above
The note with it: human, Hs27 cells (non-cancerous) versus KCL22 cells (cancer); CC50 Hs27 / CC50 KCL22; read-out: SCI (Selective Cytotoxicity Index).
Source text: as §8, §9

The test system of data set [15] is KCL22. The description is as above. The following applies: Homo sapiens.
Source text: as §8, §9
Assay in data set [16]: as above
The following applies: human, MCF-10A non-cancerous cells.
Source text: as §8
Cytotoxic activity was evaluated through the DNS assay [17, 18]. […] For quantitative analysis, images were segmented through the IN Cell Analyzer Workstation 3.2 software (GE Healthcare). […] Each compound concentration and each control were assessed in triplicate.

Assay in data set [17]: as above
The note with it: human; CC50 MCF-10A / CC50 MDA-MB-231; read-out: SCI (Selective Cytotoxicity Index).
Source text: as §1, §2

The subject of data set [18] is MDA-MB-231. The description is as above. The note with it: Homo sapiens, MDA-MB-231, 48 h.
Source text: as §1, §2
Assay in data set [19]: as above
The following applies: human, Hs27 cells (non-cancerous) versus Ramos cells (cancer); CC50 Hs27 / CC50 Ramos; read-out: SCI (Selective Cytotoxicity Index).
Source text: as §1, §2

For data set [20], the system named is Ramos. Described as above. The note with it: Homo sapiens, Ramos, 48 h.
Source text: as §1, §2
Data set [21] concerns nine tumorigenic cell lines. The experiment in a line: DNS assay, summary over the cancer cell line panel. The note with it: for CC50: 48 h, read-out: average CC50 towards the nine tumorigenic cell lines.
Procedure: Several cancer and non-cancerous cell lines were used for this analysis. […] Additionally, all media used for cell culture was supplemented with 10% heat-inactivated fetal bovine serum (FBS), and a mixture of 25 μg/ml amphotericin B, 1,000 U/ml penicillin, and 1,000 μg/ml streptomycin. […] All cell lines were grown in an incubator supplemented with 5% CO2 at 37 °C.
Cytotoxic activity was evaluated through the DNS assay [17, 18]. […] For the experiment, each cell line was plated at a density of 10,000 cells per well (96-well plate) in 100 μl media and placed in the incubator overnight under cell culture conditions. Cells were then treated with varying concentrations of the compound of interest for 48 h. […] The IN Cell 2000 analyzer, a high-content analyzer (HCA), was used to image the plates (GE Healthcare). For quantitative analysis, images were segmented through the IN Cell Analyzer Workstation 3.2 software (GE Healthcare). […] Each compound concentration and each control were assessed in triplicate.
Data set [22] is described as follows: DNS assay, summary over the non-cancerous cell lines. The following applies: human, Hs27 and MCF-10A non-cancerous cells, mean of two non-cancerous cell lines, read-out: average CC50 towards Hs27 and MCF-10A.
Source text: as §6, §7
The test system of data set [23] is HL-60 cells. The experiment in a line: Annexin V-FITC assay (phosphatidylserine externalization). The note with it: HL-60, 24 h, CC50 concentration (P3 […], P4 2 μM, P5 2 μM).
Procedure: The annexin V-FITC assay was used to evaluate the induction of apoptosis (Beckman Coulter; IM3546) [21]. HL-60 cells were seeded at a density of 100,000 cells in 1 ml complete medium. Cells were treated with the three compounds of interest for 24 h. […] Controls used were a vehicle control (0.1% v/v DMSO), an apoptosis-inducing positive control (1 mM H2O2), and an untreated cell negative control. Following treatment, cells were collected and stained with both PI and annexin V-FITC according to the manufacturer’s instructions (Beckman Coulter; IM3546). Samples were immediately read by flow cytometry (Gallios; Beckman Coulter). Data analysis was accomplished with Kaluza software (Kaluza Analysis Software; Beckman Coulter).
Data set [24] deals with caspase-3 activation in HL-60 cells. The experiment in a line: Caspase-3 assay (NucView 488). The following applies: HL-60, 8 h; concentration not given.
For data set [25], the system named is HL-60 cells. The experiment in a line: Mitochondrial membrane potential (ΔΨm) polychromatic assay (JC-1). The note with it: HL-60, 5 h, 4 μM.
Procedure: The cationic JC-1 (5′,6,6′-tetrachloro-1,1′,3,3′-tetraethylben zimidazolylcarbocyanine iodide) dye can be used to monitor mitochondrial membrane potential (Invitrogen; M34152). A red signal (JC-1 aggregates) indicates an intact polarized mitochondrial membrane, while a green signal (JC-1 monomers) indicates a depolarized mitochondrial membrane. […] A vehicle, positive, and negative control (as previously described) were included as well. Following incubation, cells were collected and stained per the manufacturer’s instructions with a final concentration of 2 μM JC-1 dye. Samples were then examined utilizing flow cytometry (Gallios; Beckman Coulter). Analysis of the subsequent data was completed using Kaluza software (Kaluza Analysis Software; Beckman Coulter).
Data set [26] deals with HL-60 cells. The experiment in a line: Reactive oxygen species (ROS) assay (carboxy-H2DCFDA). The note with it: HL-60, 18 h.
Procedure: Reactive oxygen species (ROS) generation can be quantified using the 6-carboxy-2',7'-dichlorodihydrofluorescein diacetate (carboxy-H2DCFDA) dye (Invitrogen; Molecular Probes, C400) [19, 22]. This non-fluorescent dye shifts to a green fluorescent form as oxidation, induced by ROS, occurs within the cell. Therefore, a green fluorescent signal, corresponding to the oxidized form of carboxy-H2DCFDA, indicates ROS generation. Cells (HL-60) were plated overnight at a density of 100,000 cells in 1 ml. […] Samples were collected, centrifuged at 262g for 5 min, and re-suspended in 1 ml PBS to remove the complete medium. Then, cells were loaded with a final concentration of 10 μM carboxy-H2DCFDA dye for 45 min at 37 °C. Following incubation with dye, cells were centrifuged at 262g for 5 min and re-suspended in 500 μl PBS. Then, samples were processed using flow cytometry (Gallios; Beckman Coulter). Data analysis was completed with the Kaluza software (Kaluza Analysis Software; Beckman Coulter). Controls used were the same as mentioned before (0.1% v/v DMSO, 1 mM H2O2, and untreated cells) with an additional unstained (not loaded with dye) control to observe the normal population of cells.
Data set [27] deals with HL-60 cells. Put plainly: Cell cycle analysis with NIM-DAPI. The following applies: HL-60, 72 h.
Procedure: Controls included were a vehicle (0.1% v/v DMSO), positive (1 mM H2O2), and negative (untreated cells) control. Subsequently, cells were collected in flow cytometry tubes and centrifuged at 262g for 5 min. Then, the supernatant was removed, and the cell pellet was re-suspended in a mixture of 100 μl of PBS and 200 μl of NIM-DAPI. Samples were immediately read and analyzed through flow cytometry (Gallios & Kaluza Analysis Software; Beckman Coulter). Approximately 10,000 events were acquired per sample. Data are represented as plots that display peaks (Fig. 6e) which represent fragments of DNA (Sub-G0/1 phase), cells before they replicate DNA (G0/1 phase), active replication of DNA (S phase), and post-replicative stage while entering mitosis (G2M phase) [23].
The subject of data set [28] is PMAIP1 in HL-60 cells. The experiment in a line: RT-qPCR gene expression. The note with it: HL-60, 6 h, P3 […], P4 4 μM, P5 4 μM, normalised to ACTB, 2^−ΔΔCt. (Real-time PCR tracks product formation cycle by cycle.)
Procedure: (§10) After the incubation period elapsed, cell pellets were washed by centrifuging at 262g for 5 min and re-suspending in 1 ml of PBS. Dry cell pellets were used for RNA extraction. RNA was extracted immediately according to the manufacturer’s instructions of the RNeasy Mini Kit (Qiagen; 74104). A QIAshredder was used to lyse the cells, and the optional DNase I digestion was also accomplished. Three biological replicates were used for each treatment. RNA was stored at −80 °C overnight, then the RNA was used to synthesize cDNA using the RT^2 HT First Strand Kit (Qiagen; 330,411). The amount of RNA used per sample was 500 ng, which was quantified using a NanoDrop ND-1000 system (ThermoFisher Scientific). RNA was diluted using RNase-free water to obtain the desired concentration (500 ng) in 9 μl. As per the manufacturer’s protocol, we incubated 9 μl of the sample with 6 μl GE2 (gDNA elimination buffer) for 5 min at 37 °C, then we added 6 μl BC4 Reverse Transcriptase Mix and incubated for 15 min at 42 °C, 5 min at 95 °C and, finally, a 4 °C hold. […] For data analysis, gene expression levels were normalized to the housekeeping gene (ACTB) and quantified using the comparative Ct method (2^−ΔΔCt). Fold change differences were calculated by comparing gene expression levels of compound treatment versus vehicle control.
Data set [29] deals with ATF3 in HL-60 cells. The experiment in a line: RT-qPCR gene expression. The note with it: HL-60, 6 h, P3 […], P4 4 μM, P5 4 μM, normalised to ACTB, 2^−ΔΔCt.
Procedure: as §10
For data set [30], the system named is CHAC1 in HL-60 cells. Put plainly: RT-qPCR gene expression. The note with it: HL-60, 6 h, P3 […], P4 4 μM, P5 4 μM, normalised to ACTB, 2^−ΔΔCt.
Procedure: as §10
Data set [31] deals with MYC in HL-60 cells. Put plainly: RT-qPCR gene expression. The note with it: HL-60, 6 h, P3 […], P4 4 μM, P5 4 μM, normalised to ACTB, 2^−ΔΔCt.
Procedure: as §10
Data set [32] relates to HMOX-1 in HL-60 cells. Put plainly: RT-qPCR gene expression. The following applies: HL-60, 6 h, P3 […], P4 4 μM, P5 4 μM, normalised to ACTB, 2^−ΔΔCt, two independent experiments.
Procedure: as §10
The mark [33] stands for this setting: HL-60, concentration used for 72 h cell cycle analysis.

Like-named read-outs stand apart in the source and are kept apart here.

As for `O=C1/C(=C/c2ccc(O)c(CN3CCOCC3)c2)CNC/C1=C\c1ccc(O)c(CN2CCOCC2)c1` [P5], the selectivity ratio at 48 h in data set [1] worked out at 8.42; in [3], 6.87; in [5], 7.47; in data set [8], 2.85; in [10] it was 6.05; in data set [12] it was 1.29. The selectivity ratio at 48 h was 3.49 in data set [14], 1.26 in [17] and 5.19 in [19]. Moreover, the CC50 in data set [2] (DNS assay, read-out: CC50) came out at 650 nM; in [4] (DNS assay, read-out: CC50), 800 nM; in [6] (HL-60, 48 h, DNS assay, read-out: CC50), 740 nM; in data set [6] (HL-60, value used to set treatment concentrations, read-out: CC50 in HL-60 (concentrations for cell death induction)) it was 2000 nM; in data set [9] (DNS assay, read-out: CC50) it was 1930 nM; in [11] (DNS assay, read-out: CC50) it was 910 nM. For the same compound, the CC50 in [13] (DNS assay, read-out: CC50) was 4250 nM; in [15] (KCL-22, KCL22, 48 h, DNS assay, read-out: CC50) it was 1570 nM; in [18] (DNS assay, read-out: CC50), 1740 nM; in data set [20] (DNS assay, read-out: CC50), 1060 nM; in [21] (DNS assay, mean over nine cell lines), 1520 nM. In data set [6] (setting [33]), this compound returned a CC10 of 400 nM. Further, the CC30 in [6] (setting [33]) was determined as 1200 nM. The CC50 at 48 h in [7] stood at 5500 nM; in [16], 2180 nM; in [22] it was 3840 nM. Moreover, the “times more potent than melphalan” value in data set [21] (ratio of average CC50 values, nine tumorigenic cell lines) stood at 11.7. Moreover, the “increase of Annexin V-FITC-positive cells in comparison to DMSO” value in data set [23] is ~ 30%. For the same compound, in data set [24], the “cells with active caspase-3, as compared to DMSO” value is ~ 49%. Further, the “increase in the cell population with a depolarized mitochondrial membrane in comparison to DMSO” value in data set [25] is listed as ~ 10%. Besides, the “increase of cells positive for ROS production compared to DMSO” value is on record as ~ 38% in [26] (P3 […], P4 2 μM, P5 2 μM) and ~ 65% in data set [26] (twice the concentration (P3 […], P4 4 μM, P5 4 μM)). Also, the “increase in the percentage of cells arrested at the G2/M phase versus DMSO” value in data set [27] (0.4 μM) is listed as ~ 9%. In data set [27] (printed as double the CC50 concentration), the “change in the percentage of cells in the S phase compared to DMSO” value is reported as “significant decrease”. For the same compound, the “fold-change difference of PMAIP1 expression versus vehicle” value in data set [28] stood at 79.50. Moreover, the “fold-change difference of ATF3 expression versus vehicle” value in [29] was found to be 204.56. In [30], the “fold-change difference of CHAC1 expression versus vehicle” value is reported as 106.96. Besides, in data set [31], the “fold-change difference of MYC expression versus vehicle” value is on record as −4.15. For the same compound, the “fold-change difference of HMOX-1 expression versus vehicle” value in data set [32] is listed as 2464.89.
For the compound `N[C@@H](Cc1ccc(N(CCCl)CCCl)cc1)C(=O)O` [Melphalan, reference compound], the CC50 in [2] was determined as 3170 nM; in [4], 20400 nM; in data set [6] (HL-60, 48 h) it was 1570 nM; in [9], 21100 nM; in [11], 1910 nM; in [13], 19600 nM. For the same compound, the CC50 in [15] (KCL-22, 48 h) was 81300 nM; in data set [18] it was 9230 nM; in [20] it was 2050 nM; in data set [21], 17800 nM.
